Measurements from ChEMBL document CHEMBL5380831, “Azolylpyrimidinediols as Novel Structural Scaffolds of DNA-Groove Binders against Intractable Acinetobacter baumannii” (J Med Chem, 2023).
≈ marks a conversion by molar mass, not a printed value. Calls of active or inactive are those of the source. The calls are words filed in the database; no cut-off is given here.

Tests used:
[1] = Cytotoxicity against human L02 cells assessed as cell viability upto 0.128 mmol/L measured after 24 hrs by MTT assay relative to control; format: toxicity, cell-based; conditions: up to 0.128 mM, read-out: Activity
Calf thymus DNA [2] = test: Induction of calf thymus DNA cleavage at 0.05 mmol/L incubated for 6 hrs by agarose gel electrophoresis method; format: nucleic-acid assay; conditions: Bos taurus
Erythrocyte [3] = test: Hemolytic activity in human RBC at greater than MIC measured for 2 to 4 hrs by absorbance based assay; format: toxicity, cell-based; conditions: time 2-4 hrs
Calf thymus DNA [4] = test: Induction of calf thymus DNA cleavage at 0.05 mmol/L incubated for 6 hrs in presence of Cu2+ by agarose gel electrophoresis method; format: nucleic-acid assay; conditions: Bos taurus
[5] = Cytotoxicity against human L02 cells assessed as cell viability at effective concentration measured after 24 hrs by MTT assay relative to control; format: toxicity, cell-based; conditions: read-out: Activity
Acinetobacter baumannii [6] = test: Antibacterial activity against Acinetobacter baumannii assessed as decrease in LDH activity incubated for 6 hrs by LDH assay; format: functional, organism-based
[7] = MRT (0 to infinity) in Kunming mouse at 10 mg/kg, po measured upto 24 hrs by LC-MS analysis; format: ADME, organism-based; conditions: in vivo
Calf thymus DNA [8] = test: Binding affinity to calf thymus DNA incubated for 5 mins by DAPI displacement assay; format: nucleic-acid assay; conditions: Bos taurus
Pseudomonas aeruginosa = test: Antibacterial activity against Pseudomonas aeruginosa assessed as bacterial growth inhibition incubated for 24 hrs by broth microdilution method; format: functional
Acinetobacter baumannii [9] = test: Antibacterial activity against Acinetobacter baumannii assessed as reduction in metabolic activity incubated for 6 hrs by alamar blue staining based assay; format: functional, organism-based
Staphylococcus aureus [10] = test: Antibacterial activity against Staphylococcus aureus assessed as bacterial growth inhibition incubated for 24 hrs by broth microdilution method; format: functional
Calf thymus DNA [11] = test: Binding affinity to calf thymus DNA incubated overnight in presence of sodium chloride by sodium ion-quenching assay; format: nucleic-acid assay; conditions: Bos taurus
[12] = Hemolytic activity in human RBC assessed as cell viability upto 256 ug/ml measured for 1 to 8 hrs by absorbance based assay relative to control; format: toxicity, Erythrocyte; conditions: red blood cells (erythrocytes), time 1-8 hrs, dose < 256 µg/ml, read-out: Activity
Calf thymus DNA [13] = test: Binding affinity to calf thymus DNA assessed as binding constant, K by absorbance based assay; format: nucleic-acid assay; conditions: Bos taurus
Erythrocyte [14] = test: Hemolytic activity against human RBC assessed as change in cell morphology at 512 times MIC measured after 8 hrs by microscopic analysis; format: toxicity, cell-based
[15] = AUC (0 to t) in Kunming mouse at 10 mg/kg, iv measured upto 24 hrs by LC-MS analysis; format: ADME, organism-based; parameters: time < 24 hrs, dose 10 mg/kg, route iv; conditions: in vivo
[16] = Clearance in Kunming mouse at 10 mg/kg, iv measured upto 24 hrs by LC-MS analysis; format: ADME, organism-based; conditions: in vivo
Acinetobacter baumannii [17] = test: Antibacterial activity against Acinetobacter baumannii assessed as bacterial growth inhibition incubated for 24 hrs by broth microdilution method; format: functional
[18] = Half life in Kunming mouse at 10 mg/kg, iv measured upto 24 hrs by LC-MS analysis; format: ADME, organism-based; conditions: in vivo
Acinetobacter baumannii [19] = test: Antibacterial activity against Acinetobacter baumannii infected in mouse assessed as log reduction in viable bacterial count at 10 mg/kg measured for 12 hrs; format: functional
Escherichia coli [20] = test: Antibacterial activity against Escherichia coli ATCC 25922 assessed as bacterial growth inhibition incubated for 24 hrs by broth microdilution method; format: functional
[21] = Half life in Kunming mouse at 10 mg/kg, po measured upto 24 hrs by LC-MS analysis; format: ADME, organism-based; conditions: in vivo
[22] = Hemolytic activity in human RBC at 512 times MIC measured after 8 hrs by absorbance based assay relative to control; format: toxicity, cell-based, Erythrocyte; conditions: red blood cells (erythrocytes), read-out: Activity
Acinetobacter baumannii [23] = test: Antibacterial activity against Acinetobacter baumannii infected in mouse assessed as log reduction in viable bacterial count at 30 mg/kg measured for 12 hrs; format: functional
Escherichia coli [24] = test: Antibacterial activity against Escherichia coli assessed as bacterial growth inhibition incubated for 24 hrs by broth microdilution method; format: functional
Staphylococcus aureus [25] = test: Antibacterial activity against methicillin-resistant Staphylococcus aureus assessed as bacterial growth inhibition incubated for 24 hrs by broth microdilution method; format: functional
[26] = Cmax in Kunming mouse at 10 mg/kg, po measured upto 24 hrs by LC-MS analysis; format: ADME, organism-based; parameters: time < 24 hrs, dose 10 mg/kg, route po; conditions: in vivo
Staphylococcus aureus [27] = test: Antibacterial activity against Staphylococcus aureus ATCC 25923 assessed as bacterial growth inhibition incubated for 24 hrs by broth microdilution method; format: functional
[28] = MRT (0 to t) in Kunming mouse at 10 mg/kg, po measured upto 24 hrs by LC-MS analysis; format: ADME, organism-based; conditions: in vivo
[29] = MRT (0 to infinity) in Kunming mouse at 10 mg/kg, iv measured upto 24 hrs by LC-MS analysis; format: ADME, organism-based; conditions: in vivo
[30] = AUC (0 to infinity) in Kunming mouse at 10 mg/kg, iv measured upto 24 hrs by LC-MS analysis; format: ADME, organism-based; parameters: dose 10 mg/kg, time < 24 hrs, route iv; conditions: in vivo
Klebsiella pneumoniae = test: Antibacterial activity against Klebsiella pneumoniae assessed as bacterial growth inhibition incubated for 24 hrs by broth microdilution method; format: functional
Acinetobacter baumannii [31] = test: Antibiofilm activity against Acinetobacter baumannii assessed as biofilm eradication at 0.016 mmol/L incubated for 24 hrs by crystal violet staining based analysis relative to control; format: functional
[32] = Hemolytic activity in human RBC at effective concentration measured after 1 hr by absorbance based assay relative to control; format: toxicity, cell-based, Erythrocyte; conditions: red blood cells (erythrocytes), read-out: Activity
[33] = AUMC (0 to infinity) in Kunming mouse at 10 mg/kg, po measured upto 24 hrs by LC-MS analysis; format: ADME, organism-based; conditions: in vivo
[34] = AUC (0 to t) in Kunming mouse at 10 mg/kg, po measured upto 24 hrs by LC-MS analysis; format: ADME, organism-based; parameters: time < 24 hrs, dose 10 mg/kg, route po; conditions: in vivo
Enterococcus faecalis = test: Antibacterial activity against Enterococcus faecalis assessed as bacterial growth inhibition incubated for 24 hrs by broth microdilution method; format: functional
[35] = AUMC (0 to infinity) in Kunming mouse at 10 mg/kg, iv measured upto 24 hrs by LC-MS analysis; format: ADME, organism-based; conditions: in vivo
[36] = Volume of distribution in Kunming mouse at 10 mg/kg, po measured upto 24 hrs by LC-MS analysis; format: ADME, organism-based; conditions: in vivo
[37] = C0 in Kunming mouse at 10 mg/kg, iv measured upto 24 hrs by LC-MS analysis; format: ADME, organism-based; conditions: in vivo
[38] = AUC (0 to infinity) in Kunming mouse at 10 mg/kg, po measured upto 24 hrs by LC-MS analysis; format: ADME, organism-based; parameters: dose 10 mg/kg, time < 24 hrs, route po; conditions: in vivo
Calf thymus DNA [39] = test: Binding affinity to calf thymus DNA incubated for 5 mins by acridine orange displacement assay; format: nucleic-acid assay; conditions: Bos taurus
[40] = AUMC (0 to t) in Kunming mouse at 10 mg/kg, po measured upto 24 hrs by LC-MS analysis; format: ADME, organism-based; conditions: in vivo
[41] = Cmax in Kunming mouse at 10 mg/kg, iv measured upto 24 hrs by LC-MS analysis; format: ADME, organism-based; parameters: dose 10 mg/kg, time < 24 hrs, route iv; conditions: in vivo
[42] = Oral bioavailability in Kunming mouse at 10 mg/kg measured upto 24 hrs by LC-MS analysis; format: ADME, organism-based; conditions: in vivo
Acinetobacter baumannii [43] = test: Antibiofilm activity against Acinetobacter baumannii assessed as increase in biofilm eradication incubated for 24 hrs by crystal violet staining based analysis; format: functional, organism-based
Calf thymus DNA [44] = test: Induction of calf thymus DNA cleavage at 0.05 mmol/L incubated for 6 hrs in presence of Zn(NO3)2 by agarose gel electrophoresis method; format: nucleic-acid assay; conditions: Bos taurus
[45] = AUMC (0 to t) in Kunming mouse at 10 mg/kg, iv measured upto 24 hrs by LC-MS analysis; format: ADME, organism-based; conditions: in vivo

OCCN(CCO)c1nccc(-n2cncn2)n1
viability at 24 h [1]: 85%
Activity (Calf thymus DNA [2]): inactive
Activity (Erythrocyte [3]): Non-Toxic
Activity (Calf thymus DNA [4]): inactive
viability at 24 h [5]: > 75%
Activity (Acinetobacter baumannii [6]): Dose-Dependent Effect
MRT inf [7]: 4.67 h
Activity (Calf thymus DNA [8]): Dose-Dependent Effect
MIC (Pseudomonas aeruginosa): 1 µM (≈ 0.25 µg/mL)
Activity (Acinetobacter baumannii [9]): Dose-Dependent Effect
MIC (Staphylococcus aureus [10]): 512 µM (≈ 128 µg/mL)
Activity (Calf thymus DNA [11]): Active
viability [12]: > 99%
K (Calf thymus DNA [13]): 1.7 10^3L/mol
Activity (Erythrocyte [14]): Non-Toxic
AUC(0-t) at 24 h [15]: 2080 ng·h/mL
CL [16]: 8.43 mL/min/kg
MIC (Acinetobacter baumannii [17]): 2 µM (≈ 0.501 µg/mL)
half-life [18]: 2.79 h
log(activity) (Acinetobacter baumannii [19]): 1.6
MIC (Escherichia coli [20]): 1 µM (≈ 0.25 µg/mL)
half-life [21]: 4.39 h
hemolysis at 8 h, 512 times MIC [22]: 1.5%
log(activity) (Acinetobacter baumannii [23]): 3.5
MIC (Escherichia coli [24]): 1020 µM (≈ 256 µg/mL)
MIC (Staphylococcus aureus [25]): 1020 µM (≈ 256 µg/mL)
Cmax [26]: 2130 ng/mL
MIC (Staphylococcus aureus [27]): 128 µM (≈ 32 µg/mL)
MRT last at 24 h [28]: 3.97 h
MRT inf [29]: 3.98 h
AUC [30]: 2281 ng·h/mL
MIC (Klebsiella pneumoniae): 8 µM (≈ 2 µg/mL)
Activity (Acinetobacter baumannii [31]): 39.1%
hemolysis at 1 h [32]: < 5%
AUMC [33]: 37723 hr.hr.ng/ml
AUC(0-t) at 24 h [34]: 7870 ng·h/mL
MIC (Enterococcus faecalis): 8 µM (≈ 2 µg/mL)
AUMC [35]: 8598 hr.hr.ng/ml
Vd [36]: 7.89 L/kg
C0 at 24 h [37]: 2590 ng/mL
AUC [38]: 8073 ng·h/mL
Activity (Calf thymus DNA [39]): inactive
AUMCt [40]: 31290 hr.hr.ng/ml
Cmax [41]: 1990 ng/mL
F [42]: 35.41%
Activity (Acinetobacter baumannii [43]): Dose-Dependent Effect
Activity (Calf thymus DNA [44]): inactive
AUMCt [45]: 5446 hr.hr.ng/ml
